In US10611740B2, “Aryl dihydro-2H-benzo[b][1,4]oxazine sulfonamide and related compounds for use as agonists of RORγ and the treatment of disease” (Lycera Corporation, priority 2015, dated 2020):

Each compound was assayed against T1, RORγ-LBD (Homo sapiens, UniProt P51449) (assay: RORγ-Ligand Binding Domain (LBD) TR-FRET Assay;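 for TR-FRET Assay Max Response: 665/615 nm ratio relative to signal without ursolic acid or compound set at 100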).
T1 construct: made in house; host or cells: SF9 cells (baculovirus)
T1 sequence (P51449 269-508 limits assumed): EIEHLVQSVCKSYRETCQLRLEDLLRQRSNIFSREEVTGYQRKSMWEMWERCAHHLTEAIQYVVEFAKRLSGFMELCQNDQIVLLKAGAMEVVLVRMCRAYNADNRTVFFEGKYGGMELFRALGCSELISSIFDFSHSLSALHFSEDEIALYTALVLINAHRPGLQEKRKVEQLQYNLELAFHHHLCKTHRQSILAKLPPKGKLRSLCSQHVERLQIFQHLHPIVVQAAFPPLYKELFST
Format: biochemical
Method: Assay procedures and results are described below.
HIS-tagged RORγ-LBD protein was expressed in SF9 cells using a baculovirus expression system. The lysate was diluted in assay buffer (50 mM Tris pH 7.0, 50 mM KCl, 1 mM EDTA, 0.1 mM DTT, 0.01% BSA) to obtain RORγ-LBD final concentration of ˜3 nM in a 384-well assay plate (need to titrate for each batch of protein).
A stock of biotinylated-LXXLL peptide from coactivator SRC1 (Biotin-[…]) was prepared in assay buffer and added to each well (200 nM final concentration). […] RORγ antagonist ursolic acid was also included at a final concentration of 2 μM. Compounds were diluted in DMSO and further diluted in assay buffer with a final DMSO concentration at 1%.

| EC50 [nM] | SMILES | TR-FRET Assay Max Response |
| --- | --- | --- |
| < 500 | O=C(O)CC[C@H]1CN(S(=O)(=O)c2cccc(C(F)(F)F)c2)c2cc(-c3ccc(Cl)cc3)ccc2O1 [Compound 2B, (S)-3-(6-(4-chlorophenyl)-4-((3-(trifluoromethyl)phenyl)-sulfonyl)-3,4-dihydro-2H-benzo[b][1,4]oxazin-2-yl)propanoic acid] | ** (The symbol “**” indicates a value in the range of greater than 90 to 150) |
| < 500 | O=C(O)CC[C@@H]1CN(S(=O)(=O)c2cccc(C(F)(F)F)c2)c2cc(-c3cc(F)ccc3F)ccc2O1 [Compound 2BP, (R)-3-(6-(2,5-difluorophenyl)-4-((3-(trifluoromethyl)phenyl)-sulfonyl)-3,4-dihydro-2H-benzo[b][1,4]oxazin-2-yl)propanoic acid] | *** (The symbol “***” indicates a value in the range of greater than 150 to 200) |
| < 500 | O=C(O)CC[C@H]1CN(S(=O)(=O)c2cccc(C(F)(F)F)c2)c2cc(-c3ccc(F)cc3F)ccc2O1 [Compound 2D, (S)-3-(6-(2,4-difluorophenyl)-4-((3-(trifluoromethyl)phenyl)-sulfonyl)-3,4-dihydro-2H-benzo[b][1,4]oxazin-2-yl)propanoic acid] | ** (The symbol “**” indicates a value in the range of greater than 90 to 150) |
| < 500 | O=C(O)CC[C@H]1CN(S(=O)(=O)c2cccc(C(F)(F)F)c2)c2cc(-c3ccc(F)c(F)c3)ccc2O1 [Compound 2F, (S)-3-(6-(3,4-difluorophenyl)-4-((3-(trifluoromethyl)phenyl)-sulfonyl)-3,4-dihydro-2H-benzo[b][1,4]oxazin-2-yl)propanoic acid] | ** (The symbol “**” indicates a value in the range of greater than 90 to 150) |
| < 500 | O=C(O)CC[C@H]1CN(S(=O)(=O)c2cccc(C(F)(F)F)c2)c2cc(-c3cccc(-c4ccccc4)n3)ccc2O1 [Compound 4AI, (S)-3-(6-(6-phenylpyridin-2-yl)-4-((3-(trifluoromethyl)-phenyl)sulfonyl)-3,4-dihydro-2H-benzo[b][1,4]oxazin-2-yl)propanoic acid] | ** (The symbol “**” indicates a value in the range of greater than 90 to 150) |
| 500 to 5000 | CN(C)c1cc(C(F)(F)F)cc(-c2ccc3c(c2)N(S(=O)(=O)c2cccc(C(F)(F)F)c2)C[C@H](CCC(=O)O)O3)n1 [Compound 4AT, (S)-3-(6-(6-(dimethylamino)-4-(trifluoromethyl)pyridin-2-yl)-4-((3-(trifluoromethyl)phenyl)-sulfonyl)-3,4-dihydro-2H-benzo[b][1,4]oxazin-2-yl)propanoic acid] | *** (The symbol “***” indicates a value in the range of greater than 150 to 200) |
| 500 to 5000 | CN(C)c1nccc(-c2ccc3c(c2)N(S(=O)(=O)c2cccc(C(F)(F)F)c2)C[C@H](CCC(=O)O)O3)n1 [Compound 4AV, (S)-3-(6-(2-(dimethylamino)-pyrimidin-4-yl)-4-((3-(trifluoromethyl)phenyl)-sulfonyl)-3,4-dihydro-2H-benzo[b][1,4]oxazin-2-yl)propanoic acid] | *** (The symbol “***” indicates a value in the range of greater than 150 to 200) |
| 500 to 5000 | O=C(O)CC[C@H]1CN(S(=O)(=O)c2cccc(C(F)(F)F)c2)c2cc(-c3ccnc(Cl)n3)ccc2O1 [Compound 4AX, (S)-3-(6-(2-chloropyrimidin-4-yl)-4-((3-(trifluoromethyl)-phenyl)sulfonyl)-3,4-dihydro-2H-benzo[b][1,4]oxazin-2-yl)propanoic acid] | ** (The symbol “**” indicates a value in the range of greater than 90 to 150) |
| > 10000 | O=C(O)CC[C@H]1CN(S(=O)(=O)c2cccc(C(F)(F)F)c2)c2cc(-c3cccc(C(F)(F)F)n3)c(Cl)cc2O1 [Compound 22F, (S)-3-(7-chloro-4-((3-(trifluoromethyl)phenyl)sulfonyl)-6-(6-(trifluoromethyl)pyridin-2-yl)-3,4-dihydro-2H-benzo[b][1,4]-oxazin-2-yl)propanoic acid] |  |
| < 500 | O=C(O)CC[C@H]1CN(S(=O)(=O)c2cccc(C(F)(F)F)c2)c2cc(-c3cc(F)cc(OC(F)F)c3)cc(F)c2O1 [Compound 22M, (S)-3-(6-(3-(difluoromethoxy)-5-fluorophenyl)-8-fluoro-4-((3-(trifluoromethyl)phenyl)sulfonyl)-3,4-dihydro-2H-benzo[b][1,4]-oxazin-2-yl)propanoic acid] | *** (The symbol “***” indicates a value in the range of greater than 150 to 200) |
| < 500 | O=C(O)CC[C@H]1CN(S(=O)(=O)c2cccc(C(F)(F)F)c2)c2cc(-c3cc(F)cc(OC(F)F)c3)c(Cl)cc2O1 [Compound 22N, (S)-3-(7-chloro-6-(3-(difluoro-methoxy)-5-fluorophenyl)-4-((3-(trifluoromethyl)phenyl)sulfonyl)-3,4-dihydro-2H-benzo[b][1,4]-oxazin-2-yl)propanoic acid] |  |
| < 500 | O=C(O)CNC(=O)CC[C@H]1CN(S(=O)(=O)c2cccc(C(F)(F)F)c2)c2cc(-c3cccc(F)c3F)ccc2O1 [Compound 23O, (S)-(3-(6-(2,3-difluorophenyl)-4-((3-(trifluoromethyl)-phenyl)sulfonyl)-3,4-dihydro-2H-benzo[b][1,4]oxazin-2-yl)propanoyl)glycine] | **** (The symbol “****” indicates a value greater than 200) |
| < 500 | O=C(NCC[C@H]1CN(S(=O)(=O)c2cccc(C(F)(F)F)c2)c2cc(-c3cc(F)ccc3F)ccc2O1)NC[C@H](O)C(=O)O [Compound 23Z, (S)-3-(3-(2-((S)-6-(2,5-difluorophenyl)-4-((3-(trifluoro-methyl)phenyl)sulfonyl)-3,4-dihydro-2H-benzo[b][1,4]oxazin-2-yl)ethyl)ureido)-2-hydroxypropanoic acid] | **** (The symbol “****” indicates a value greater than 200) |
| 500 to 5000 | Cc1coc(-c2ccc3c(c2)N(S(=O)(=O)c2cccc(C(F)(F)F)c2)C[C@H](CCC(=O)O)O3)n1 [Compound 25, (S)-3-(6-(4-methyloxazol-2-yl)-4-((3-(trifluoromethyl)phenyl)sulfonyl)-3,4-dihydro-2H-benzo[b][1,4]oxazin-2-yl)propanoic acid] | ** (The symbol “**” indicates a value in the range of greater than 90 to 150) |
| 500 to 5000 | CC(C)(C(=O)NC[C@H]1CN(S(=O)(=O)c2cccc(C(F)(F)F)c2)c2cc(-c3cccc(F)c3Cl)ccc2O1)C(F)(F)F [Compound 30BJ, (S)-N-((6-(2-chloro-3-fluoro-phenyl)-4-((3-(trifluoromethyl)-phenyl)sulfonyl)-3,4-dihydro-2H-benzo[b][1,4]oxazin-2-yl)methyl)-3,3,3-trifluoro-2,2-dimethylpropanamide] | *** (The symbol “***” indicates a value in the range of greater than 150 to 200) |
| < 500 | NS(=O)(=O)CCC(=O)NC[C@H]1CN(S(=O)(=O)c2cccc(C(F)(F)F)c2)c2cc(-c3cccc(F)c3Cl)ccc2O1 [Compound 30BK, (S)-N-((6-(2-chloro-3-fluoro-phenyl)-4-((3-(trifluoromethyl)-phenyl)sulfonyl)-3,4-dihydro-2H-benzo[b][1,4]oxazin-2-yl)methyl)-3-sulfamoylpropanamide] | *** (The symbol “***” indicates a value in the range of greater than 150 to 200) |
| < 500 | N#CC1(C(=O)NC[C@H]2CN(S(=O)(=O)c3cccc(C(F)(F)F)c3)c3cc(-c4cccc(F)c4Cl)ccc3O2)CC1 [Compound 30BL, (S)-N-((6-(2-chloro-3-fluoro-phenyl)-4-((3-(trifluoromethyl)-phenyl)sulfonyl)-3,4-dihydro-2H-benzo[b][1,4]oxazin-2-yl)methyl)-1-cyanocyclo-propane-1-carboxamide] | *** (The symbol “***” indicates a value in the range of greater than 150 to 200) |
| < 500 | O=C(NC[C@H]1CN(S(=O)(=O)c2cccc(C(F)(F)F)c2)c2cc(-c3cccc(F)c3Cl)ccc2O1)C1(F)CC1 [Compound 30BM, (S)-N-((6-(2-chloro-3-fluoro-phenyl)-4-((3-(trifluoromethyl)-phenyl)sulfonyl)-3,4-dihydro-2H-benzo[b][1,4]oxazin-2-yl)methyl)-1-fluorocyclo-propane-1-carboxamide] | *** (The symbol “***” indicates a value in the range of greater than 150 to 200) |
| < 500 | CC(C)(C(=O)NC[C@H]1CN(S(=O)(=O)c2cccc(C(F)(F)F)c2)c2cc(-c3cc(F)cc(OC(F)F)c3)ccc2O1)C(F)(F)F [Compound 30CY, (S)-N-((6-(3-(difluoromethoxy)-5-fluorophenyl)-4-((3-(trifluoro-methyl)phenyl)sulfonyl)-3,4-dihydro-2H-benzo[b][1,4]-oxazin-2-yl)methyl)-3,3,3-trifluoro-2,2-dimethyl-propanamide] | ** (The symbol “**” indicates a value in the range of greater than 90 to 150) |
